From patent US20080139536A1, “Benzodiazepines for Treating or Preventing Rsv Infection” (Novartis Pharmaceuticals Corporation, priority 2004, published 2008)

Tested on: RSV (RSS strain)
Assay: RSV ELISA antigen reduction assay in Hep-2 cells
Assay type: cell-based, Respiratory Syncytial Virus
Conditions: RSV-infected Hep-2 cells, 3 day assay, ELISA OD 490 nm, 7-point dilution 50 μM-0.78 μM
Experimental: This was quantified by optical density (OD) measurement.
This assay was set up using all 96 wells of flat-bottomed 96-well plates. The outer wells were not subjected to any greater amount of evaporation than the inner wells during the 3 day assay period. (i.e. No “edge effect” seen).
Plates were set up one day before addition of virus and compounds. The assay then ran for 3 days with ELISA development taking place on the 4th day.
All 96 wells of a microtitre plate were seeded at a density of 4×10^3 Hep-2 cells/well in 100 μl/well of Growth Medium (GM) consisting of Dulbecco's MEM (DMEM) with Glutamax-1, Sodium Pyruvate, 1000 mg/l glucose and pyridoxine (Invitrogen, catalogue number 21885-025) and supplemented with 10% FBS. (See Plate 1).
A frozen vial of RSV (RSS strain provided by Virogen Ltd) stock solution was removed from the −80 freezer or liquid nitrogen store and diluted to a known Multiplicity of Infection (m.o.i) in Growth Medium.
The m.o.i. was calculated by prior titration of the virus stock (by the ELISA assay method) as the virus input required to achieve a window of at least 0.8 OD units between infected and uninfected control wells.
50 μl of diluted virus was added to infected, “virus+”, wells by multichannel pipette; 50 μl of Growth Medium was added to uninfected, cell control wells (CC) by multichannel pipette. (See Plate 2)
Plates were incubated at 37° C. for 1 hr to allow virus adsorption.
Compounds were made up at 4× strength in GM containing 2% DMSO (a final DMSO concentration in the assay of 0.5%).
Six compounds were tested on each assay plate as illustrated below. (See Plate 3). Compounds were tested in duplicate wells across a 7-point dilution series (from 50 μM-0.78 μM): in the presence of virus.
Virus infected, untreated wells served as the virus control (VC); Uninfected, untreated wells serve as the cell control (CC). The difference in absorbance between CC and VC wells constitutes the assay window.
200 μl of GM containing 2% DMSO was added to all wells except the ‘50 μM’ or first column, to which 392 μl of GM was added. 8 μl of each test compound was cherry-picked from a thawed Arrow screening plate and transferred to the appropriate well in the ‘50 μM’ column. Since the compound stock was at 10 mM in 100% DMSO, this will maintain the DMSO level at 2% at the top compound concentration.
Using a multichannel pipette, 200 μl was transferred from the 50 μM column to the 25 μM column, then to the 12.5 μM column and so on across the dilution plate creating a serial doubling dilution. Compounds were mixed upon transfer and tips changed between transfers, ensuring also that no compound was transferred to the last column of compound-free wells (0 μM).
The dilution plate was turned lengthways and 50 μl of compound easily transferred by multichannel pipette from the dilution plate to the assay plate, column by column. There was therefore an excess of 100 μl remaining in the dilution plate.
Plates were incubated at 37° C., 5% CO2 for 3 days.
Media was tapped out from wells directly into Virkon (1% solution in water) and plates were washed by immersing in a plastic box containing PBS. 50 μl/well of 75%/25% vol/vol acetone/methanol fixative was added by multichannel pipette and left for 3 mins.
Some 200 μl of blocking solution (2% Marvel in PBS containing 0.05% Tween) was added per well by multichannel pipette. Plates were incubated at 37° C. in a shaking incubator for 60 mins.
RSV mouse monoclonal antibody NCL-RSV3 (Novocastra) was diluted 1/400 in PBS/2% Marvel/0.05% Tween and 50 μl was added per well. Plates were incubated at 37° C. in a shaking incubator for 90 mins.
DAKo rabbit anti-mouse HRP conjugate (DAKO catalogue number P0260) was diluted 1/1000 in PBS/2% Marvel/0.05% Tween and 50 μl was added per well. Plates were incubated at 37° C. in a shaking incubator for 60 mins.
Substrate (SigmaFast OPD) was prepared in advance by dissolving 1 urea tablet in 20 mL water. […]

[1] = human respiratory syncytial virus, 72 h

SMILES	IC50 [1] [µM]	IC50 [µM]
CN(C)Cc1ccc(C(=O)N[C@H]2N=C(c3ccccc3)c3ccccc3NC2=O)o1 [Example 11, (S)-5-Dimethylaminomethyl-furan-2-carboxylic acid (2-oxo-5-phenyl-2,3-dihydro-1H-benzo[e][1,4]diazepin-3-yl)-amide]	< 5	
O=C(N[C@H]1N=C(c2ccccc2)c2ccccc2NC1=O)c1ccc(C(F)(F)F)cc1N1CCCCC1 [Example 17, (S)—N-(2-Oxo-5-phenyl-2,3-dihydro-1H-benzo[e][1,4]diazepin-3-yl)-2-piperidin-1-yl-4-trifluoromethyl-benzamide]	5 to 10	
O=C(NC1N=C(c2ccccc2)c2ccccc2NC1=O)c1ccc(N2CCCCC2)nc1 (racemic) [Example 2, 3,4,5,6-Tetrahydro-2H-[1,2′]bipyridinyl-5′-carboxylic acid (2-oxo-5-phenyl-2,3-dihydro-1H-benzo[e][1,4]diazepin-3-yl)-amide]	5 to 10	
O=C(N[C@H]1N=C(c2ccccc2)c2ccccc2NC1=O)c1ccc(C(F)(F)F)cc1N1CCOCC1 [Example 18, (S)-2-Morpholin-4-yl-N-(2-oxo-5-phenyl-2,3-dihydro-1H-benzo[e][1,4]diazepin-3-yl)-4-trifluoromethyl-benzamide]	< 5	
O=C(N[C@H]1N=C(c2ccccc2)c2ccccc2NC1=O)c1cc(CN2CCOCC2)on1 [Example 43, (S)-5-Morpholin-4-ylmethyl-isoxazole-3-carboxylic acid (2-oxo-5-phenyl-2,3-dihydro-1H-benzo[e][1,4]diazepin-3-yl)-amide]	< 5	
O=C(N[C@H]1N=C(c2ccccc2)c2ccccc2NC1=O)c1ccc(CN2CCOCC2)s1 [Example 49, (S)-5-Morpholin-4-ylmethyl-thiophene-2-carboxylic acid (2-oxo-5-phenyl-2,3-dihydro-1H-benzo[e][1,4]diazepin-3-yl)-amide]	< 5	
Cc1cccc(N2CCS(=O)(=O)CC2)c1C(=O)N[C@H]1N=C(c2ccccc2)c2ccccc2NC1=O [Example 25, (S)-2-(1,1-Dioxo-1λ6-thiomorpholin-4-yl)-6-methyl-N-(2-oxo-5-phenyl-2,3-dihydro-1H-benzo[e][1,4]diazepin-3-yl)-benzamide]	> 10	
CN(CCS(C)(=O)=O)Cc1ccc(C(=O)N[C@H]2N=C(c3ccccc3)c3ccccc3NC2=O)o1 [Example 37]		< 5
O=C(N[C@H]1N=C(c2ccccc2)c2ccccc2NC1=O)c1occc1CN1CCOCC1 [Example 44, (S)-3-Morpholin-4-ylmethyl-furan-2-carboxylic acid (2-oxo-5-phenyl-2,3-dihydro-1H-benzo[e][1,4]diazepin-3-yl)-amide]	5 to 10	
O=C(N[C@H]1N=C(c2ccccc2)c2ccccc2NC1=O)c1ccc(CN2CCCCC2)o1 [Example 10, (S)-5-Piperidin-1-ylmethyl-furan-2-carboxylic acid (2-oxo-5-phenyl-2,3-dihydro-1H-benzo[e][1,4]diazepin-3-yl)-amide]	< 5	
O=C(N[C@H]1N=C(c2ccccc2)c2ccccc2NC1=O)c1ccc(N2CCOCC2)nc1 [Example 47, (S)-6-Morpholin-4-yl-N-(2-oxo-5-phenyl-2,3-dihydro-1H-benzo[e][1,4]diazepin-3-yl)-nicotinamide]	< 5	
O=C(N[C@H]1N=C(c2ccccc2)c2ccccc2NC1=O)c1cccc(S(=O)(=O)N2CCOCC2)c1 [Example 31, (S)-3-(Morpholine-4-sulfonyl)-N-(2-oxo-5-phenyl-2,3-dihydro-1H-benzo[e][1,4]diazepin-3-yl)-benzamide]	5 to 10	
O=C(N[C@H]1N=C(c2ccccc2)c2ccccc2NC1=O)c1cc(C(F)(F)F)ccc1N1CCCC1 [Example 19, (S)—N-(2-Oxo-5-phenyl-2,3-dihydro-1H-benzo[e][1,4]diazepin-3-yl)-2-pyrrolidin-1-yl-5-trifluoromethyl-benzamide]	< 5	
O=C(N[C@H]1N=C(c2ccccc2)c2ccccc2NC1=O)c1ccccc1N1CCS(=O)(=O)CC1 [Example 3]		5 to 10
